# Source: the kinase profiling compilation of Christmann-Franck et al. (2016)
# What was measured:
# Test in all cases: KINOMEscan competition binding
# Conditions in all cases: compound 10.0 µM
# [1] = system: BMX (human), P51813 [V600E]
# CAMK1D (human) = CAMK1D (human) (UniProt Q8IU85)
# CDK2 (human) = CDK2 (human) (UniProt P24941)
# CLK1 (human) = CLK1 (human) (UniProt P49759)
# CSNK1A1L (human) = CSNK1A1L (human) (UniProt Q8N752)
# CSNK2A1 (human) = CSNK2A1 (human) (UniProt P68400)
# DYRK1B (human) = DYRK1B (human) (UniProt Q9Y463)
# EGFR (human) = EGFR (human) (UniProt P00533)
# [2] = system: EGFR (human), P00533 [A750P; 747-749 del]
# EIF2AK2 (human) = EIF2AK2 (human) (UniProt P19525)
# EPHA7 (human) = EPHA7 (human) (UniProt Q15375)
# FLT1 (human) = FLT1 (human) (UniProt P17948)
# LATS1 (human) = LATS1 (human) (UniProt O95835)
# LIMK2 (human) = LIMK2 (human) (UniProt P53671)
# MAP2K4 (human) = MAP2K4 (human) (UniProt P45985)
# MAP2K7 (human) = MAP2K7 (human) (UniProt O14733)
# MAP4K4 (human) = MAP4K4 (human) (UniProt O95819)
# MAPK10 (human) = MAPK10 (human) (UniProt P53779)
# MAPK6 (human) = MAPK6 (human) (UniProt Q16659)
# MARK3 (human) = MARK3 (human) (UniProt P27448)
# MERTK (human) = MERTK (human) (UniProt Q12866)
# Sequence of MERTK (human) (Q12866 whole entry, looked up): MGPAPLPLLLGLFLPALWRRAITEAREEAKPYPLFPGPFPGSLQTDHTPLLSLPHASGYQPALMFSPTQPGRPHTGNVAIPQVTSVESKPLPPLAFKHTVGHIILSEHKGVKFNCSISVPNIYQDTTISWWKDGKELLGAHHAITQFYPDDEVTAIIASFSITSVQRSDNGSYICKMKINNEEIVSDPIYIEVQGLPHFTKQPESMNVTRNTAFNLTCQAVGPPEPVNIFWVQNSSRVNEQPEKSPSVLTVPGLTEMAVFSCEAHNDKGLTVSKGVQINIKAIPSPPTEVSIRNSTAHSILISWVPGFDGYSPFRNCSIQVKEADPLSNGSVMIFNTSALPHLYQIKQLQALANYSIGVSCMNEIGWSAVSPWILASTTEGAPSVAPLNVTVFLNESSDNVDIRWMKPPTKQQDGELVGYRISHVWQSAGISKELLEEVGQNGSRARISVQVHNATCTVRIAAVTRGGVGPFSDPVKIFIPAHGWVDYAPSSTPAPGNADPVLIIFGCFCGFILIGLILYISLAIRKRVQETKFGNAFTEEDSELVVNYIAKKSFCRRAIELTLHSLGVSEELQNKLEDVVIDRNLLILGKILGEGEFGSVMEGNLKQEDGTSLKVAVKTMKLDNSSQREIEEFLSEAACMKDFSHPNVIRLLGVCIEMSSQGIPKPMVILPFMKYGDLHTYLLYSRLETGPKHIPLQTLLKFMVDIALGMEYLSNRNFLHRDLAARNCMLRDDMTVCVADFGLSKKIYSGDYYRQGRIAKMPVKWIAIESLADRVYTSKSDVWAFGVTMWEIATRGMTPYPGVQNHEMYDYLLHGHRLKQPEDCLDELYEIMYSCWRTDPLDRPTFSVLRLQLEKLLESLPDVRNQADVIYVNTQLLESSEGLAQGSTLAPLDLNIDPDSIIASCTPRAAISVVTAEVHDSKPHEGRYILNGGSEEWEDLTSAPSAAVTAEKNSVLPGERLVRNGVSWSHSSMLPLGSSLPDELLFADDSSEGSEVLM
# MST4 (human) = MST4 (human) (UniProt Q9P289)
# MTOR (human) = MTOR (human) (UniProt P42345)
# MYLK3 (human) = MYLK3 (human) (UniProt Q32MK0)
# NTRK1 (human) = NTRK1 (human) (UniProt P04629)
# NUAK1 (human) = NUAK1 (human) (UniProt O60285)
# Sequence of NUAK1 (human) (O60285 whole entry, looked up): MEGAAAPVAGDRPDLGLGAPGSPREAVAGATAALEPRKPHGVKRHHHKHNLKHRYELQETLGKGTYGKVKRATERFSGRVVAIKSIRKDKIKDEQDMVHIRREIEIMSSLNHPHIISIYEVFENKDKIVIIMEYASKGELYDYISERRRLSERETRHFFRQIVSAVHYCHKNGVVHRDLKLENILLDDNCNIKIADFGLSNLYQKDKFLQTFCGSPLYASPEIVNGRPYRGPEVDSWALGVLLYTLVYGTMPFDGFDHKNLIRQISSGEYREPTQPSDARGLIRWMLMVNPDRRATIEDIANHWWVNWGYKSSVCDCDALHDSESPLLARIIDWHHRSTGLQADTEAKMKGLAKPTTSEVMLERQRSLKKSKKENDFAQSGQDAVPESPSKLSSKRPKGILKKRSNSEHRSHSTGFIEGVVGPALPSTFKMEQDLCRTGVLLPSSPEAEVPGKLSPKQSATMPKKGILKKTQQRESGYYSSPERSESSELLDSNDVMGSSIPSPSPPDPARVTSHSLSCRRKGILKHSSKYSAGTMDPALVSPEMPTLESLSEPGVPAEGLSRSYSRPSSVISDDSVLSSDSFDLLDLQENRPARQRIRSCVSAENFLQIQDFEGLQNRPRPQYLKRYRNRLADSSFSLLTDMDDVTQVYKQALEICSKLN
# PAK4 (human) = PAK4 (human) (UniProt O96013)
# PIK3CA (human) = PIK3CA (human) (UniProt P42336)
# Sequence of PIK3CA (human) (P42336 whole entry, looked up): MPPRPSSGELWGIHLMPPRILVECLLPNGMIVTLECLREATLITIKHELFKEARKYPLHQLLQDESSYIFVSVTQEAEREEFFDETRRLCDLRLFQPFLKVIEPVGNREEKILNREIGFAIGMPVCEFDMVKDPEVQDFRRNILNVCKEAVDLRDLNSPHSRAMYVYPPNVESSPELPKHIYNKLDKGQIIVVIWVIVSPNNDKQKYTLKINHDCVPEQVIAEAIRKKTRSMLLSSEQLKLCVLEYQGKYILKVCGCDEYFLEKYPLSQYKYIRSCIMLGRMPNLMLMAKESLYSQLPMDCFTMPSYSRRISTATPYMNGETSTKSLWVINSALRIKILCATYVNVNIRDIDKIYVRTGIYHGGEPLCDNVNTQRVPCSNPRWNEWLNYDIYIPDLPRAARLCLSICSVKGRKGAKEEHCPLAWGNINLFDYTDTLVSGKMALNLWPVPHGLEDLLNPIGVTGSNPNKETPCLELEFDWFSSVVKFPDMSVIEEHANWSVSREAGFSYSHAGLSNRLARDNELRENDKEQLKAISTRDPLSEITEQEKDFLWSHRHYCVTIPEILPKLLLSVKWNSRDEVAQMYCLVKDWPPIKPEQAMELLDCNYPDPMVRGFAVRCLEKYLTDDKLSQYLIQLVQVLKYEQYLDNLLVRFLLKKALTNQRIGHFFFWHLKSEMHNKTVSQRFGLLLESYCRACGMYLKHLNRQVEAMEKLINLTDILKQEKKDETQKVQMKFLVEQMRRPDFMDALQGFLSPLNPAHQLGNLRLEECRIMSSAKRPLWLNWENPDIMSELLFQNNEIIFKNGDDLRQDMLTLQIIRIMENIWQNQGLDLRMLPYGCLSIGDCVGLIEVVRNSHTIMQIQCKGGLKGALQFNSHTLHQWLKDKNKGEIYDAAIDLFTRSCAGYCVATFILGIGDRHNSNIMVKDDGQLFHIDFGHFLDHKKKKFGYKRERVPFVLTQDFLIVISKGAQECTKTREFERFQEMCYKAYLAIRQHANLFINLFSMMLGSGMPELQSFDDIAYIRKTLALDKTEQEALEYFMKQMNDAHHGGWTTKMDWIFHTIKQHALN
# [3] = system: PIK3CA (human), P42336 [E542K]
# Sequence of PIK3CA (human), P42336 [E542K] (P42336 whole entry E542K, looked up): as the sequence (P42336 whole entry, looked up) above, with E542K counted along it
# RPS6KA2 KD2 (human) = RPS6KA2 KD2 (human) (UniProt Q15349)
# Sequence of RPS6KA2 KD2 (human) (Q15349 whole entry, looked up): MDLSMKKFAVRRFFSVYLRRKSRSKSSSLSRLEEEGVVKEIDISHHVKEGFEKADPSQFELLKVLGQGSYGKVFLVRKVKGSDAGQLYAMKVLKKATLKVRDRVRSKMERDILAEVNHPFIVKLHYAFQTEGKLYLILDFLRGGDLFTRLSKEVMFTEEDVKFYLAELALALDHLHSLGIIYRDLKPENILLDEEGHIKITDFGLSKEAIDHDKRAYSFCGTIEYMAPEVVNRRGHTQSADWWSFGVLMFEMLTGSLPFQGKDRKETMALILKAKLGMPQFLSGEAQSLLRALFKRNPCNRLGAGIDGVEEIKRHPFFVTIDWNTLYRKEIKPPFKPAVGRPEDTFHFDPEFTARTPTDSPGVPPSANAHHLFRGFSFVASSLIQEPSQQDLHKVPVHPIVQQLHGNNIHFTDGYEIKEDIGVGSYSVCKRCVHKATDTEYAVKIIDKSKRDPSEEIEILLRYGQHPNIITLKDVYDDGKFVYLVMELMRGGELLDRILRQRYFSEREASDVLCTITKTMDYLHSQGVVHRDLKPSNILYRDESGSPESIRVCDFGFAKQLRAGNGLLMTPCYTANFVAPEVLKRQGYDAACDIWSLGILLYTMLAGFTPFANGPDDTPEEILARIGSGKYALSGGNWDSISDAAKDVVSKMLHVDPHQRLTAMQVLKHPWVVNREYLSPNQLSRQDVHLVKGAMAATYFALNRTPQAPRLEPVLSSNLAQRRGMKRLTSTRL
# RPS6KA4 KD2 (human) = RPS6KA4 KD2 (human) (UniProt O75676)
# RPS6KA6 KD2 (human) = RPS6KA6 KD2 (human) (UniProt Q9UK32)
# SRC (human) = SRC (human) (UniProt P12931)
# STK10 (human) = STK10 (human) (UniProt O94804)
# STK39 (human) = STK39 (human) (UniProt Q9UEW8)
# TEC (human) = TEC (human) (UniProt P42680)
# TNK2 (human) = TNK2 (human) (UniProt Q07912)
# [4] = biological target: TYK2 JH1 catalytic (human) (UniProt P29597)
# ULK2 (human) = ULK2 (human) (UniProt Q8IYT8)
# YSK4 (human) = YSK4 (human) (UniProt Q56UN5)
# Sequence of YSK4 (human) (Q56UN5 whole entry, looked up): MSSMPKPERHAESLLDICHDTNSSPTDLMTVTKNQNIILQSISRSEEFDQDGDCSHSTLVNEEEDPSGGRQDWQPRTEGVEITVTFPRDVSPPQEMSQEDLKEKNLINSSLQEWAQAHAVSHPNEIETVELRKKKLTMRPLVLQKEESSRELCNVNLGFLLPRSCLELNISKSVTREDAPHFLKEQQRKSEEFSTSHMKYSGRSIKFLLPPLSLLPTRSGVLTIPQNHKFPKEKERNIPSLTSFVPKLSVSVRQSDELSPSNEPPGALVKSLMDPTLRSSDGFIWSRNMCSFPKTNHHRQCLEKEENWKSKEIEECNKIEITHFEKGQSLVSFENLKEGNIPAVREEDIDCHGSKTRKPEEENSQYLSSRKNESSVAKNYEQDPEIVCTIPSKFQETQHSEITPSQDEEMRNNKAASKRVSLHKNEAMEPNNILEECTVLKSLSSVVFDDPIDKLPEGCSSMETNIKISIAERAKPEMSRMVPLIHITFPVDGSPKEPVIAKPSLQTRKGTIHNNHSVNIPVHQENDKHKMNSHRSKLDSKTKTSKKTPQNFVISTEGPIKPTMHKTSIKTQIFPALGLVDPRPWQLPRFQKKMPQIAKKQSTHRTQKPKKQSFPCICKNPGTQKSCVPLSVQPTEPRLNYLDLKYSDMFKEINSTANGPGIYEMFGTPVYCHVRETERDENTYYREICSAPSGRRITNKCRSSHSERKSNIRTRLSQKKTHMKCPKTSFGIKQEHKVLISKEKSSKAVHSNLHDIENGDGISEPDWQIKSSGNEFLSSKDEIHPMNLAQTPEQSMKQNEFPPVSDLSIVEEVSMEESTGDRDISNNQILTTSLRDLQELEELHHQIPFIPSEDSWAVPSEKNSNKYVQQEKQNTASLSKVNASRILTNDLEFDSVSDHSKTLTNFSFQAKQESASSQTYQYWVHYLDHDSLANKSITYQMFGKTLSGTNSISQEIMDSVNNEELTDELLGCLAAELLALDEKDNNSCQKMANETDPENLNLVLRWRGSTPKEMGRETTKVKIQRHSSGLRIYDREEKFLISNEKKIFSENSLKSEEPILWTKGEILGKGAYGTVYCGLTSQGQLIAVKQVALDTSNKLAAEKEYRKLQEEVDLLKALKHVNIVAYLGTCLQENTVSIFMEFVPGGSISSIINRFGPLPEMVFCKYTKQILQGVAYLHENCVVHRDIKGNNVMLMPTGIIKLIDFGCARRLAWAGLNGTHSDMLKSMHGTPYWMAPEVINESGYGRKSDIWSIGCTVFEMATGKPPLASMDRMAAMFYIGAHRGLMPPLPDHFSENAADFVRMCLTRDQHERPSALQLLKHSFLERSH
SMILES,"kinase still bound, per cent of control [1]","kinase still bound, per cent of control (CAMK1D (human))","kinase still bound, per cent of control (CDK2 (human))","kinase still bound, per cent of control (CLK1 (human))","kinase still bound, per cent of control (CSNK1A1L (human))","kinase still bound, per cent of control (CSNK2A1 (human))","kinase still bound, per cent of control (DYRK1B (human))","kinase still bound, per cent of control (EGFR (human))","kinase still bound, per cent of control [2]","kinase still bound, per cent of control (EIF2AK2 (human))","kinase still bound, per cent of control (EPHA7 (human))","kinase still bound, per cent of control (FLT1 (human))","kinase still bound, per cent of control (LATS1 (human))","kinase still bound, per cent of control (LIMK2 (human))","kinase still bound, per cent of control (MAP2K4 (human))","kinase still bound, per cent of control (MAP2K7 (human))","kinase still bound, per cent of control (MAP4K4 (human))","kinase still bound, per cent of control (MAPK10 (human))","kinase still bound, per cent of control (MAPK6 (human))","kinase still bound, per cent of control (MARK3 (human))",also measured
C=CC(=O)Nc1ccc(C(=O)c2sc(Nc3ccc(N4CCN(C)CC4)cc3OC)nc2N)cc1,92%,0.55%,75%,0.55%,78%,14%,2.6%,84%,61%,100%,95%,97%,82%,100%,24%,93%,38%,6.4%,90%,100%,"kinase still bound, per cent of control (MERTK (human)): 100%; kinase still bound, per cent of control (MST4 (human)): 99%; kinase still bound, per cent of control (MTOR (human)): 90%; kinase still bound, per cent of control (MYLK3 (human)): 100%; kinase still bound, per cent of control (NTRK1 (human)): 78%; kinase still bound, per cent of control (NUAK1 (human)): 100%; kinase still bound, per cent of control (PAK4 (human)): 95%; kinase still bound, per cent of control (PIK3CA (human)): 95%; kinase still bound, per cent of control [3]: 100%; kinase still bound, per cent of control (RPS6KA2 KD2 (human)): 0.25%; kinase still bound, per cent of control (RPS6KA4 KD2 (human)): 0.2%; kinase still bound, per cent of control (RPS6KA6 KD2 (human)): 0.7%; kinase still bound, per cent of control (SRC (human)): 100%; kinase still bound, per cent of control (STK10 (human)): 100%; kinase still bound, per cent of control (STK39 (human)): 0%; kinase still bound, per cent of control (TEC (human)): 98%; kinase still bound, per cent of control (TNK2 (human)): 82%; kinase still bound, per cent of control [4]: 100%; kinase still bound, per cent of control (ULK2 (human)): 9.4%; kinase still bound, per cent of control (YSK4 (human)): 70%"
CNC(=O)Nc1ccc(-c2nc(N3CC4CCC(C3)O4)c3cnn(C4CCC5(CC4)OCCO5)c3n2)cc1,100%,95%,92%,29%,100%,80%,100%,62%,52%,100%,87%,92%,95%,88%,90%,100%,85%,86%,85%,92%,"kinase still bound, per cent of control (MERTK (human)): 87%; kinase still bound, per cent of control (MST4 (human)): 70%; kinase still bound, per cent of control (MTOR (human)): 5.7%; kinase still bound, per cent of control (MYLK3 (human)): 100%; kinase still bound, per cent of control (NTRK1 (human)): 100%; kinase still bound, per cent of control (NUAK1 (human)): 82%; kinase still bound, per cent of control (PAK4 (human)): 100%; kinase still bound, per cent of control (PIK3CA (human)): 16%; kinase still bound, per cent of control [3]: 14%; kinase still bound, per cent of control (RPS6KA2 KD2 (human)): 93%; kinase still bound, per cent of control (RPS6KA4 KD2 (human)): 100%; kinase still bound, per cent of control (RPS6KA6 KD2 (human)): 84%; kinase still bound, per cent of control (SRC (human)): 75%; kinase still bound, per cent of control (STK10 (human)): 99%; kinase still bound, per cent of control (STK39 (human)): 100%; kinase still bound, per cent of control (TEC (human)): 84%; kinase still bound, per cent of control (TNK2 (human)): 84%; kinase still bound, per cent of control [4]: 100%; kinase still bound, per cent of control (ULK2 (human)): 90%; kinase still bound, per cent of control (YSK4 (human)): 100%"
